Results published in patent US12391679B2, “Benzamide-substituted bicyclic imidazo- and pyrazolo-fused -pyridine, -pyrimide, and -pyridazine compounds for treatment of inflammatory diseases” (ONCO3R Therapeutics BV, priority 2019, dated 2025).

How the values were obtained:
Format in all cases: biochemical
[1] = target: T1, SIK3 (Homo sapiens, UniProt Q9Y2K2); assay: ADP-Glo kinase assay, SIK3
T1 construct: purchased SignalChem S12-11G-100
How it was run: (§1)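 Luminescent ADP-Glo readout of ADP formed. Enzyme-substrate mix with ATP, reaction 120 min at RT, then 40 min ATP depletion and 30 min detection. Controls were 1% DMSO (negative) and 10 μM staurosporine (positive), both final.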

[2] = target: T2, SIK2 (Homo sapiens, UniProt Q9H0K1); assay: ADP-Glo kinase assay, SIK2
T2 construct: purchased ThermoFisher Scientific PV4792
How it was run: as §1

[3] = target: T3, SIK1 (Homo sapiens, UniProt P57059); assay: ADP-Glo kinase assay, SIK1
T3 construct: purchased Carna Biosciences 02-131
How it was run: as §1

T2 sequence (Q9H0K1 whole entry): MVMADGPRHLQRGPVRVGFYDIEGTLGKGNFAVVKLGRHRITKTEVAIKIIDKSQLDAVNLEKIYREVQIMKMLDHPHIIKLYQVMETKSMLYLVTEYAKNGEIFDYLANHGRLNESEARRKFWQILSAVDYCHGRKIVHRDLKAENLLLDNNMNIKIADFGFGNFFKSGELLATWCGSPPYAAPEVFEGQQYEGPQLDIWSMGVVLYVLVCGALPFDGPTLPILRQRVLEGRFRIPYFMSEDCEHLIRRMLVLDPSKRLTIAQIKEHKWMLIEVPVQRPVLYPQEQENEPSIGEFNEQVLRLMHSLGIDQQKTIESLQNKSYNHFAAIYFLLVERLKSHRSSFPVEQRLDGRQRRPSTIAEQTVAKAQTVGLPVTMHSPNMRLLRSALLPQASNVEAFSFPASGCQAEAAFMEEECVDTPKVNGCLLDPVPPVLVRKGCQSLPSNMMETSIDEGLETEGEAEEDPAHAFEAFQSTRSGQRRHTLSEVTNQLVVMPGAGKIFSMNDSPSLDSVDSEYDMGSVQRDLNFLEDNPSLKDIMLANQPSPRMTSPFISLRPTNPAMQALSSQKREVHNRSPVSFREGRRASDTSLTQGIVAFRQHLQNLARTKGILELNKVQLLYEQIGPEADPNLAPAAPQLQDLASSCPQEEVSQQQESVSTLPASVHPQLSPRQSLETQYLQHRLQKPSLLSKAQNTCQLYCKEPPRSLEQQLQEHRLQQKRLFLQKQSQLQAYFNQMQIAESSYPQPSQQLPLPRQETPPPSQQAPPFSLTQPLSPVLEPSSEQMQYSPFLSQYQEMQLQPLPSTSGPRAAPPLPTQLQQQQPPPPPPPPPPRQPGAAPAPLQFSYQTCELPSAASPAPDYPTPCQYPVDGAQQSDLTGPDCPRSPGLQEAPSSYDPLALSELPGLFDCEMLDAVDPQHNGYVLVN
T3 sequence (P57059 whole entry): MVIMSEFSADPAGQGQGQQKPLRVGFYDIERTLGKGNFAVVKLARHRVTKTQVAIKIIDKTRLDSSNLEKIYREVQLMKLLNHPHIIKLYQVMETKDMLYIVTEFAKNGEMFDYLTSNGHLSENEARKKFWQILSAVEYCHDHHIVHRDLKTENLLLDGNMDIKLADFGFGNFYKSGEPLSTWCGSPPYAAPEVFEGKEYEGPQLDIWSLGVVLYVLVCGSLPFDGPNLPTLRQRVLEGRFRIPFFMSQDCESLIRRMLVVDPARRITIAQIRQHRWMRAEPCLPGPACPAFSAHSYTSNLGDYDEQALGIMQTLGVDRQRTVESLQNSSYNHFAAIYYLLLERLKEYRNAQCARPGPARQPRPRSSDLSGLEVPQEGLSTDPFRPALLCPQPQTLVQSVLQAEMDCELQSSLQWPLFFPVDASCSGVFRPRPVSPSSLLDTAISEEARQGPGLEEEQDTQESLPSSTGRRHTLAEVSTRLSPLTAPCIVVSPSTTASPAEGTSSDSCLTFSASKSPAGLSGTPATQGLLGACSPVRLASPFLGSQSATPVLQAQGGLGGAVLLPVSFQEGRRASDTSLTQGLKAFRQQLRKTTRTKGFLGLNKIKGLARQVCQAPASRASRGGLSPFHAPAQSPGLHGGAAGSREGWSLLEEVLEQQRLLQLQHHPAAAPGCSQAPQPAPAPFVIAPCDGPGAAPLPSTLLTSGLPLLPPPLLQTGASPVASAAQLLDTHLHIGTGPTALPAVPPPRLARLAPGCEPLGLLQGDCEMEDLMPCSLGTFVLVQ
T1 sequence (Q9Y2K2 59-365 limits assumed): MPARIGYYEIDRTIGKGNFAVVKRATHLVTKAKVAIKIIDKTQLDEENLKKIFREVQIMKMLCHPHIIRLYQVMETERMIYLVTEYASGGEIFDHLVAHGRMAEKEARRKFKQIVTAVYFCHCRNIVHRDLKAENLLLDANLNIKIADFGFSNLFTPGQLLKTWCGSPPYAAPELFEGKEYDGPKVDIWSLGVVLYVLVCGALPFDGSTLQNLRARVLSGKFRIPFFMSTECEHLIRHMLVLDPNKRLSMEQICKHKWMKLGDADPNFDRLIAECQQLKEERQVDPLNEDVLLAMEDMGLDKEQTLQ

| SMILES | IC50 [1] | IC50 [2] | IC50 [3] |
| --- | --- | --- | --- |
| COc1cc(-c2cnc3cc(C(C)(C)C#N)ccn23)cc(OC(F)F)c1C(=O)N1CCS(=O)(=O)CC1 [Cpd 38, 2-[3-[3-(difluoromethoxy)-4-(1,1-dioxo-1,4-thiazinane-4-carbonyl)-5-methoxy-phenyl]imidazo[1,2-a]pyridin-7-yl]-2-methyl-propanenitrile] | > 500 nM | > 500 nM | > 500 nM |
| COc1cc(-c2cnc3cc(C(C)(C)c4noc(C)n4)ccn23)cc(OC(F)F)c1C(=O)NC1CC1 [Cpd 61, N-cyclopropyl-2-(difluoromethoxy)-6-methoxy-4-[7-[1-methyl-1-(5-methyl-1,2,4-oxadiazol-3-yl)ethyl]imidazo[1,2-a]pyridin-3-yl]benzamide] | 10 to 100 nM | > 500 nM | > 500 nM |
| COc1cc(-c2cnc3cc(C(C)(C)C#N)ccn23)cc(OC(F)F)c1C(=O)NCc1ccn(C)n1 [Cpd 52, 4-[7-(1-cyano-1-methyl-ethyl)imidazo[1,2-a]pyridin-3-yl]-2-(difluoromethoxy)-6-methoxy-N-[(1-methylpyrazol-3-yl)methyl]benzamide] | > 500 nM | > 500 nM | > 500 nM |
| COc1cc(-c2cnc3cc(C4CN(C(=O)OC(C)(C)C)C4)ccn23)cc(OC(F)F)c1C(=O)NC1CC1 [Cpd 59, tert-butyl 3-[3-[4-(cyclopropylcarbamoyl)-3-(difluoromethoxy)-5-methoxy-phenyl]imidazo[1,2-a]pyridin-7-yl]azetidine-1-carboxylate] | 0.01 to 10 nM | 10 to 100 nM | 10 to 100 nM |
| COC(=O)C(C)(C#N)c1ccn2c(-c3cc(OC)c(C(=O)NC4CC4)c(OC(F)F)c3)cnc2c1 (stereo not drawn) [Cpd 184, methyl 2-cyano-2-[3-[4-(cyclopropylcarbamoyl)-3-(difluoromethoxy)-5-methoxy-phenyl]imidazo[1,2-a]pyridin-7-yl]propanoate] | > 500 nM | > 500 nM | > 500 nM |
| COc1cc(-c2cnc3cc(C(C)(C)O)ccn23)cc(OC)c1C(=O)NCC(F)(F)F [Cpd 57, 4-[7-(1-hydroxy-1-methyl-ethyl)imidazo[1,2-a]pyridin-3-yl]-2,6-dimethoxy-N-(2,2,2-trifluoroethyl)benzamide] | 10 to 100 nM | > 500 nM | > 500 nM |
| COc1cc(-c2cnc3cc(C(C)(O)CN(C)CCO)ccn23)cc(OC(F)F)c1C(=O)NC1CC1 (stereo not drawn) [Cpd 209, N-cyclopropyl-2-(difluoromethoxy)-4-[7-[1-hydroxy-2-[2-hydroxyethyl(methyl)amino]-1-methyl-ethyl]imidazo[1,2-a]pyridin-3-yl]-6-methoxy-benzamide] | 10 to 100 nM | > 500 nM | > 500 nM |
| COc1cc(-c2cnc3cc(C(C)N4CCCC4)ccn23)cc(OC(F)F)c1C(=O)NC1CC1 (stereo not drawn) [Cpd 153, N-cyclopropyl-2-(difluoromethoxy)-6-methoxy-4-[7-(1-pyrrolidin-1-ylethyl)imidazo[1,2-a]pyridin-3-yl]benzamide] | 10 to 100 nM | > 500 nM | > 500 nM |
| COc1cc(-c2cnc3cc(C(C)(C)C#N)ccn23)cc(OC(F)F)c1C(=O)NC(C1CC1)C(F)(F)F (stereo not drawn) [Cpd 100, 4-[7-(1-cyano-1-methyl-ethyl)imidazo[1,2-a]pyridin-3-yl]-N-(1-cyclopropyl-2,2,2-trifluoro-ethyl)-2-(difluoromethoxy)-6-methoxy-benzamide] | > 500 nM | > 500 nM | > 500 nM |
| COc1cc(-c2cnc3cc(C4CCCN4C(C)=O)ccn23)cc(OC(F)F)c1C(=O)NC1CC1 (stereo not drawn) [Cpd 198, 4-[7-(1-acetylpyrrolidin-2-yl)imidazo[1,2-a]pyridin-3-yl]-N-cyclopropyl-2-(difluoromethoxy)-6-methoxy-benzamide] | 10 to 100 nM | > 500 nM | > 500 nM |
| COc1cc(-c2cnc3cc(C(C)(C)C#N)ccn23)cc(OC(F)F)c1C(=O)NC1CS(=O)(=O)C1 [Cpd 73, 4-[7-(1-cyano-1-methyl-ethyl)imidazo[1,2-a]pyridin-3-yl]-2-(difluoromethoxy)-N-(1,1-dioxothietan-3-yl)-6-methoxy-benzamide] | 10 to 100 nM | > 500 nM | > 500 nM |
